Molecules are shown by their SMILES.

Here are results for 15 compounds from patent EP3722296B1, “DIHYDRONAPHTHYRIDINES AND RELATED COMPOUNDS USEFUL AS KINASE INHIBITORS FOR THE TREATMENT OF PROLIFERATIVE DISEASES” (Deciphera Pharmaceuticals, LLC, priority 2012, dated 2013).

What all share (assay type): cell-based
Experiment [1] deals with GIST430 cells. The experiment can be described thus: GIST 430 Cell Proliferation Assay. The settings on record: Homo sapiens, 120 h, 115 hours + 5 hours resazurin. The method, then:
GIST48, GIST430, and GIST882 cells were obtained from J. Fletcher (Brigham and Women's Hospital, Boston, MA). GIST T1 cells were obtained from B. Rubin (Cleveland Clinic, Cleveland, OH) and Professor Takahiro Taguchi (Kochi Medical School, Nankoku, Kochi, Japan). Briefly, GIST48 and GIST 882 cells were grown in RPMI 1640 medium supplemented with 15% characterized fetal bovine serum (Invitrogen, Carlsbad, CA), 1 unit/mL penicillin G, 1 µg/ml streptomycin, and 0.29 mg/mL L-glutamine at 37 °C, 5% CO2, and 95% humidity. GIST430 cells were grown in Ham's F10 medium supplemented with 15% characterized fetal bovine serum (Invitrogen, Carlsbad, CA), 30 mg/L bovine pituitary extract (BD Biosciences, San Jose, CA), 0.5% Mito+ serum extender (BD Biosciences, San Jose, CA), 1 unit/mL penicillin G, 1 µg/ml streptomycin, and 0.29 mg/mL L-glutamine at 37 °C, 5%CO2, 95% humidity. GIST T1 cells were grown in DMEM medium supplemented with 10% characterized fetal bovine serum (Invitrogen, Carlsbad, CA), 1 unit/mL penicillin G, 1 µg/ml streptomycin, and 0.29 mg/mL L-glutamine at 37 °C, 5% CO2, and 95% humidity.
A serial dilution of test compound was dispensed into a 384-well black clear bottom plate (Corning, Corning, NY). Two thousand five-hundred cells were added per well in 50 µL complete growth medium. Plates were incubated for 115 hours at 37°C, 5% CO2, 95% humidity. At the end of the incubation period 10 µL of a 440 µM solution of resazurin (Sigma, St. Louis, MO) in PBS was added to each well and incubated for an additional 5 hours at 37°C, 5% CO2, 95% humidity. Plates were read on a Synergy2 reader (Biotek, Winooski, VT) using an excitation of 540 nm and an emission of 600 nm.

For experiment [2], the target named is T1, Phospho-KIT (Tyr719) (Homo sapiens, UniProt P10721, DEL560-578).
T1 construct: endogenous in cells; host or cells: GIST T1
The experiment can be described thus: GIST T1 KIT Western Blot. The settings on record: GIST T1 cells, 4 hours, serum-free medium; read-out: pKIT suppression by western blot analysi GIST T1. The method, then: GIST48, GIST430, and GIST882 cells were obtained from J. Fletcher (Brigham and Women's Hospital, Boston, MA). GIST T1 cells were obtained from B. Rubin (Cleveland Clinic, Cleveland, OH) and Professor Takahiro Taguchi (Kochi Medical School, Nankoku, Kochi, Japan). […] GIST430 cells were grown in Ham's F10 medium supplemented with 15% characterized fetal bovine serum (Invitrogen, Carlsbad, CA), 30 mg/L bovine pituitary extract (BD Biosciences, San Jose, CA), 0.5% Mito+ serum extender (BD Biosciences, San Jose, CA), 1 unit/mL penicillin G, 1 µg/ml streptomycin, and 0.29 mg/mL L-glutamine at 37 °C, 5%CO2, 95% humidity. GIST T1 cells were grown in DMEM medium supplemented with 10% characterized fetal bovine serum (Invitrogen, Carlsbad, CA), 1 unit/mL penicillin G, 1 µg/ml streptomycin, and 0.29 mg/mL L-glutamine at 37 °C, 5% CO2, and 95% humidity. Cells were allowed to expand until reaching 70-95% confluence at which point they were subcultured or harvested for assay use.
One hundred twenty-five thousand cells were added per well in a 24-well tissue-culture treated plate. Cells were then incubated overnight at 37°C, 5% CO2, 95% humidity. Medium was aspirated, cells were washed with PBS, and serum-free DMEM medium was added. A serial dilution of test compound was added to plates containing cells and plates were incubated for 4 hours at 37°C, 5% CO2, 95% humidity. Cells were washed with PBS, then lysed. Cell lysates were separated by SDS-PAGE and transferred to PVDF. Phospho-KIT (Tyr719) was detected using an antibody from Cell Signaling Technology (Beverly, MA), ECL Plus detection reagent (GE Healthcare, Piscataway, NJ) and a Molecular Devices Storm 840 phosphorimager in fluorescence mode. Blots were stripped and probed for total KIT using an antibody from Santa Cruz Biotech (Santa Cruz, CA). IC50 values were calculated using Prism software (Graphpad, San Diego, CA).

Experiment [3] concerns the target T2, WKV557-559 deletion/C557insertion/D820A (Homo sapiens, UniProt P10721, D820A/DEL557-558/V559C).
T2 construct: V5 (vector-encoded); expressed in transfected cells; host or cells: CHO K1
Put plainly: CHO K1 phospho-KIT ELISA. The settings on record: transient transfected CHO K1 cells, phospho-c-KIT (Tyr719), read-out: KIT kinase domain mutations (primary/secondary): WKV557-559 deletion.
Description: (§2) CHO K1 cells (catalog #CCL-61) were obtained from the American Type Culture Collection, Manassas, VA. […] Cells were allowed to expand until reaching 70-95% confluency at which point they were subcultured or harvested for assay use.
(§3) Cells were then incubated overnight at 37°C, 5% CO2, 95% RH. Transfection-grade pcDNA3.2 V5 DEST expression vector containing KIT variant, Lipofectamine LTX Reagent, and PLUS reagent (Invitrogen, Carlsbad, CA) were diluted into Opti-MEM® I medium (Invitrogen, Carlsbad, CA). The tube was incubated at room temperature to allow formation of DNA-Lipofectamine LTX complexes. The DNA-lipofectamine LTX complex mix was added directly to each well and mixed gently. Eighteen hours post-transfection, medium was replaced with serum-free RPMI medium. A serial dilution of test compound was added, and plates were incubated for 4 hours at 37°C, 5% CO2, 95% RH. Cell lysates were prepared, then phospho-c-KIT (Tyr719) was measured by using a Human phospho-c-KIT ELISA kit (Cell Signaling, Beverly, MA). Data was analyzed using Prism software (Graphpad, San Diego, CA) to calculate IC50 values.

The target in experiment [4] is T3, VV559-560 deletion/D816V KIT (Homo sapiens, UniProt P10721, D816V/DEL559-560).
T3 construct: expressed in transfected cells; host or cells: CHO K1
The experiment can be described thus: CHO K1 phospho-KIT Western. Particulars: transient transfected CHO K1 cells, phospho-KIT (Tyr719), read-out: KIT kinase domain mutations (primary/secondary): VV559-560 deletion / D816V. On the procedure: (§1) Cells were washed with PBS, then lysed. Cell lysates were separated by SDS-PAGE and transferred to PVDF. Phospho-KIT (Tyr719) was detected using an antibody from Cell Signaling Technology (Beverly, MA), ECL Plus detection reagent (GE Healthcare, Piscataway, NJ) and a Molecular Devices Storm 840 phosphorimager in fluorescence mode. Blots were stripped and probed for total KIT using an antibody from Santa Cruz Biotech (Santa Cruz, CA). IC50 values were calculated using Prism software (Graphpad, San Diego, CA).

Experiment [5] has as its target T4, D816V KIT (Homo sapiens, UniProt P10721, D816V).
T4 construct: V5 (vector-encoded); expressed in transfected cells; host or cells: CHO K1
The experiment can be described thus: CHO K1 phospho-KIT Western. Particulars: transient transfected CHO K1 cells, phospho-KIT (Tyr719), read-out: KIT kinase domain mutations (primary/secondary): D816V. The method, then: as §1

The target of experiment [6] is T5, D820A KIT (Homo sapiens, UniProt P10721, D820A).
T5 construct: V5 (vector-encoded); expressed in transfected cells; host or cells: CHO K1
The experiment can be described thus: CHO K1 phospho-KIT Western. The settings on record: transient transfected CHO K1 cells, phospho-KIT (Tyr719), read-out: KIT kinase domain mutations (primary/secondary): D820A. On the procedure: as §1

The target in experiment [7] is T6, V560D/N822K (Homo sapiens, UniProt P10721, N822K/V560D).
T6 construct: V5 (vector-encoded); expressed in transfected cells; host or cells: CHO K1
Put plainly: CHO K1 phospho-KIT ELISA. The settings on record: transient transfected CHO K1 cells, phospho-c-KIT (Tyr719), read-out: KIT kinase domain mutations (primary/secondary): V560D / N822K.
Description: as §2, §3

Experiment [8] deals with T7, V560D/Y823D (Homo sapiens, UniProt P10721, V560D/Y823D).
T7 construct: V5 (vector-encoded); expressed in transfected cells; host or cells: CHO K1
Put plainly: CHO K1 phospho-KIT ELISA. Particulars: transient transfected CHO K1 cells, phospho-c-KIT (Tyr719), read-out: KIT kinase domain mutations (primary/secondary): V560D / Y823D.
Description: as §2, §3

T1 sequence (P10721 with tags, fused parts or gaps DEL560-578): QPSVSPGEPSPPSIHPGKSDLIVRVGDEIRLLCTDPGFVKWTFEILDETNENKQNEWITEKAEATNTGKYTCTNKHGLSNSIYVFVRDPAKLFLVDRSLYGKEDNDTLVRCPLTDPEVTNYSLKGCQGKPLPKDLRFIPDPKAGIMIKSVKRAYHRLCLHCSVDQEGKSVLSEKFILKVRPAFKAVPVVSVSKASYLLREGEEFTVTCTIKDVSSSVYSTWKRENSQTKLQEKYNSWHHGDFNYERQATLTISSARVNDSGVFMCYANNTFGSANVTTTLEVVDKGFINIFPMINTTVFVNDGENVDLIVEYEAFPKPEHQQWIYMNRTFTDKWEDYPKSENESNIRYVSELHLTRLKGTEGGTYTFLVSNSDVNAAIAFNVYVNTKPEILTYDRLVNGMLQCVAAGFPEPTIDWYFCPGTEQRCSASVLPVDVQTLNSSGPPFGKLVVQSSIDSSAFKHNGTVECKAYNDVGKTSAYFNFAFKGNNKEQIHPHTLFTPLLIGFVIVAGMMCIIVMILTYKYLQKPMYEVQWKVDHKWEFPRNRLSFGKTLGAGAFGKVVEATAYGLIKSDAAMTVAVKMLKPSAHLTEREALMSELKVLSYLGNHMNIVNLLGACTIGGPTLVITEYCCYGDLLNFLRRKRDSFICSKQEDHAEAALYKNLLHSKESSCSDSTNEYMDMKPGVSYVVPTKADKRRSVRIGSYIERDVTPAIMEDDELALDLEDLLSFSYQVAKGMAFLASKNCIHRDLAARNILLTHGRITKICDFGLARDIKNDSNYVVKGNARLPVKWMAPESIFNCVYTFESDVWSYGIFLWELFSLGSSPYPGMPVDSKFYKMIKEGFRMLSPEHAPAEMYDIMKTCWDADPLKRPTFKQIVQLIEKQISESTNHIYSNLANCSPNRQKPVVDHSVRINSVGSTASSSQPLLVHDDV
T7 sequence (P10721 26-976 V560D/Y823D): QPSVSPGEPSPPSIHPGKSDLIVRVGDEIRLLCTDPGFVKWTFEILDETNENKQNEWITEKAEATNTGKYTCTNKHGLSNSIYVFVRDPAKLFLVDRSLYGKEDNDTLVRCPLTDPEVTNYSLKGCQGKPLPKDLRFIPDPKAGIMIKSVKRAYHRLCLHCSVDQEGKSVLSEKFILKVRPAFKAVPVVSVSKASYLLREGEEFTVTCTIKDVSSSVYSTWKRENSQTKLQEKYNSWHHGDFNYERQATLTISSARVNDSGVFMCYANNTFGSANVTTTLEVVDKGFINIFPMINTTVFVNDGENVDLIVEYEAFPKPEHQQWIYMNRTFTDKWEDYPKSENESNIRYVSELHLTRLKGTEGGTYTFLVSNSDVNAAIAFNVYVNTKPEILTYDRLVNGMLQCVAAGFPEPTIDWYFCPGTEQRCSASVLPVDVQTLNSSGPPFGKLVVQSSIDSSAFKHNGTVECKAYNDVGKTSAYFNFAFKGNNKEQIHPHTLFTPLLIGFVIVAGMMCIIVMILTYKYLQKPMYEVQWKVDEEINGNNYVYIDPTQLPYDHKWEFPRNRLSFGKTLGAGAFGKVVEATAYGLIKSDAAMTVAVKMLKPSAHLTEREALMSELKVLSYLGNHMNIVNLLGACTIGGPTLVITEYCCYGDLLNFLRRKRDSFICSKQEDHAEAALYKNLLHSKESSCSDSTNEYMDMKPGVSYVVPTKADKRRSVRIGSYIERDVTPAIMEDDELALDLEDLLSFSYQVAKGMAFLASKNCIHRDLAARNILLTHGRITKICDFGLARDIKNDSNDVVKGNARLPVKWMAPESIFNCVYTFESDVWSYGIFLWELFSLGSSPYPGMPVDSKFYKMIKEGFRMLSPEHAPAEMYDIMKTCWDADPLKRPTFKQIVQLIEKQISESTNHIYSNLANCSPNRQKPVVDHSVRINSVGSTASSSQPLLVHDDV
T6 sequence (P10721 26-976 V560D/N822K): as the sequence (P10721 26-976 V560D/Y823D) above, with N797K, D798Y counted along it
T3 sequence (P10721 with tags, fused parts or gaps DEL559-560/D816V): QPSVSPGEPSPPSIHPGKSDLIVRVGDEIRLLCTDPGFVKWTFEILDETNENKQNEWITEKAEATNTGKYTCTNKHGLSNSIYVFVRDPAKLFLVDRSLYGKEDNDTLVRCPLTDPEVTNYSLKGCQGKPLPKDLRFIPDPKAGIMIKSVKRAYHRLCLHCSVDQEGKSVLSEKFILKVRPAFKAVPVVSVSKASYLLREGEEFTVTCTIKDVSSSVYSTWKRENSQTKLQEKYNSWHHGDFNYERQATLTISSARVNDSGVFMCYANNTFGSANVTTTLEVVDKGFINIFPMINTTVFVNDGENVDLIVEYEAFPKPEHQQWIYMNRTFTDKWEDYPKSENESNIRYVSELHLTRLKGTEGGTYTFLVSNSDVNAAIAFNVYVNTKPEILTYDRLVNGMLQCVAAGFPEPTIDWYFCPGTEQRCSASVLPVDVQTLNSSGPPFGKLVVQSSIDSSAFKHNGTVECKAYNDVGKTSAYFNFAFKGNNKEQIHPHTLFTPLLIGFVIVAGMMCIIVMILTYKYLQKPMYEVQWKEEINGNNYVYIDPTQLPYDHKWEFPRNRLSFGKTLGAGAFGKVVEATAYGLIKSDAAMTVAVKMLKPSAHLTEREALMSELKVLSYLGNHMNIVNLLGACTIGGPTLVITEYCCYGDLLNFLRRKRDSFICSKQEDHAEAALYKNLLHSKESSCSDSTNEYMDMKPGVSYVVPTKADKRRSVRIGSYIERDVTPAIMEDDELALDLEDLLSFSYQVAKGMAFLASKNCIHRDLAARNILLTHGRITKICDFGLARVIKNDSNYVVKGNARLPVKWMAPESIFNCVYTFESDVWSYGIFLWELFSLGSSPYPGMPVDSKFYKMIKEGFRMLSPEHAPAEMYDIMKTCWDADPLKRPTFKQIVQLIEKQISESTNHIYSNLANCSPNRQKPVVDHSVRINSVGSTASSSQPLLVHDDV
T2 sequence (P10721 with tags, fused parts or gaps DEL557-558/V559C/D820A): as the sequence (P10721 with tags, fused parts or gaps DEL559-560/D816V) above, with W532C, K533V, V789D, D793A counted along it
T4 sequence (P10721 26-976 D816V): as the sequence (P10721 26-976 V560D/Y823D) above, with D535V, D791V, D798Y counted along it
T5 sequence (P10721 26-976 D820A): as the sequence (P10721 26-976 V560D/Y823D) above, with D535V, D795A, D798Y counted along it

Turning to `CCn1c(=O)c(-c2cc(NC(=O)Nc3ccccc3)c(F)cc2Cl)cc2cnc(NC)cc21` [Example 3, 1-(4-chloro-5-(1-ethyl-7-(methylamino)-2-oxo-1,2-dihydro-1,6-naphthyridin-3-yl)-2-fluorophenyl)-3-phenylurea], the IC50 in experiment [1] is 0.01 to 0.1 µM; in experiment [2], under 0.01 µM.
For the compound `CCn1c(=O)c(-c2cc(NC(=O)Nc3cccc4ccccc34)c(F)cc2Cl)cc2cnc(NC)cc21` [Example 6, 1-(4-chloro-5-(1-ethyl-7-(methylamino)-2-oxo-1,2-dihydro-1,6-naphthyridin-3-yl)-2-fluorophenyl)-3-(naphthalen-1-yl)urea], the IC50 in experiment [2] was in the range of 0.01 to 0.1 µM.
On the same count and under the same terms, under `CCn1c(=O)c(-c2cc(NC(=O)Nc3cccc(F)c3)c(F)cc2Cl)cc2cnc(N)cc21` [Example 20, 1-(5-(7-amino-1-ethyl-2-oxo-1,2-dihydro-1,6-naphthyridin-3-yl)-4-chloro-2-fluorophenyl)-3-(3-fluorophenyl)urea] stands under 0.01 µM; under `CNc1cc2c(cn1)cc(-c1cc(NC(=O)Nc3ccccc3)c(F)cc1Cl)c(=O)n2C(C)C` [Example 22, 1-(4-chloro-2-fluoro-5-(1-isopropyl-7-(methylamino)-2-oxo-1,2-dihydro-1,6-naphthyridin-3-yl)phenyl)-3-phenylurea], under 0.01 µM.
Regarding `CCn1c(=O)c(-c2cc(NC(=O)Nc3ccccc3)c(F)cc2C)cc2cnc(NC)cc21` [Example 23, 1-(5-(1-ethyl-7-(methylamino)-2-oxo-1,2-dihydro-1,6-naphthyridin-3-yl)-2-fluoro-4-methylphenyl)-3-phenylurea], the IC50 is 0.01 to 0.1 µM in experiment [1]; under 0.01 µM in experiment [2]; 0.01 to 0.1 µM in experiment [3]; 0.1 to 1 µM in experiment [4]; over 1 µM in experiment [5]; 0.01 to 0.1 µM in experiment [6]. The results for the IC50 in experiment [7] and in experiment [8] were 0.01 to 0.1 µM and under 0.01 µM, respectively.
Consider `CCn1c(=O)c(-c2cc(NC(=O)Nc3cccc(F)c3)c(F)cc2Cl)cc2cnc(NC)cc21` [Example 24, 1-[4-chloro-5-(1-ethyl-7-methylamino-2-oxo-1,2-dihydro-[1,6]naphthyridin-3-yl)-2-fluoro-phenyl]-3-(3-fluoro-phenyl)-urea], for which the IC50 in experiment [2] is under 0.01 µM.
In the case of `CCn1c(=O)c(-c2cc(NC(=O)Nc3ccccc3)c(F)cc2Cl)cc2cnc(NCCOC)cc21` [Example 27, 1-(4-chloro-5-(1-ethyl-7-(2-methoxyethylamino)-2-oxo-1,2-dihydro-1,6-naphthyridin-3-yl)-2-fluorophenyl)-3-phenylurea], the IC50 in experiment [1] fell in the range of 0.1 to 1 µM.
Regarding `CCn1c(=O)c(-c2cc(NC(=O)Nc3cccc(F)c3)c(F)cc2Cl)cc2cnc(NCCOC)cc21` [Example 28, 1-(4-chloro-5-(1-ethyl-7-(2-methoxyethylamino)-2-oxo-1,2-dihydro-1,6-naphthyridin-3-yl)-2-fluorophenyl)-3-(3-fluorophenyl)urea], the IC50 in experiment [2] is under 0.01 µM.
As for `CCn1c(=O)c(-c2cc(NC(=O)Nc3csc4ccccc34)c(F)cc2Cl)cc2cnc(NC)cc21` [Example 32, 1-(benzo[b]thiophen-3-yl)-3-(4-chloro-5-(1-ethyl-7-(methylamino)-2-oxo-1,2-dihydro-1,6-naphthyridin-3-yl)-2-fluorophenyl)urea], the IC50 was 0.01 to 0.1 µM in experiment [1] and under 0.01 µM in experiment [2].
In the same order, the values of `CCn1c(=O)c(-c2cc(NC(=O)Nc3cccc(F)c3)c(F)cc2C)cc2cnc(NC)cc21` [Example 44, 1-(5-(1-ethyl-7-(methylamino)-2-oxo-1,2-dihydro-1,6-naphthyridin-3-yl)-2-fluoro-4-methylphenyl)-3-(3-fluorophenyl)urea] are 0.01 to 0.1 µM and under 0.01 µM.
Consider `CCn1c(=O)c(-c2cc(NC(=O)Nc3cccc(F)c3)c(F)cc2Br)cc2cnc(NC)cc21` [Example 50, 1-(4-bromo-5-(1-ethyl-7-(methylamino)-2-oxo-1,2-dihydro-1,6-naphthyridin-3-yl)-2-fluorophenyl)-3-(3-fluorophenyl)urea], for which the IC50 in experiment [2] is under 0.01 µM.
The same measure, in the same setting: under `CCn1c(=O)c(-c2cc(NC(=O)Nc3ccccc3)c(F)cc2Cl)cc2cnc(NC(C)=O)cc21` [Example 54, 1-(5-(7-acetamido-1-ethyl-2-oxo-1,2-dihydro-1,6-naphthyridin-3-yl)-4-chloro-2-fluorophenyl)-3-phenylurea] stands under 0.01 µM; under `CCn1c(=O)c(-c2cc(NC(=O)Nc3ccccc3)c(F)cc2Br)cc2cnc(N)cc21` [Example 57, 1-(5-(7-amino-1-ethyl-2-oxo-1,2-dihydro-1,6-naphthyridin-3-yl)-4-bromo-2-fluorophenyl)-3-phenylurea], under 0.01 µM.
In the case of `CCn1c(=O)c(-c2cc(NC(=O)Nc3csc4ccccc34)c(F)cc2C)cc2cnc(NC)cc21` [Example 59, 1-(benzo[b]thiophen-3-yl)-3-(5-(1-ethyl-7-(methylamino)-2-oxo-1,2-dihydro-1,6-naphthyridin-3-yl)-2-fluoro-4-methylphenyl)urea], the IC50 in experiment [2] was under 0.01 µM; in experiment [3], under 0.01 µM; in experiment [4], 0.01 to 0.1 µM; in experiment [5] it was under 0.01 µM; in experiment [6] it was 0.01 to 0.1 µM; in experiment [7], under 0.01 µM. Besides, the IC50 in experiment [8] was under 0.01 µM.
`CCn1c(=O)c(-c2cc(NC(=O)Nc3ccccc3)c(F)cc2Cl)cc2cnc(NC(=O)N(C)C)cc21` [Example 70, 3-(3-(2-chloro-4-fluoro-5-(3-phenylureido)phenyl)-1-ethyl-2-oxo-1,2-dihydro-1,6-naphthyridin-7-yl)-1,1-dimethylurea]: the IC50 in experiment [2] was under 0.01 µM.
